Assays:
[1] = Ionizable cationic lipid in plasma, liver and spleen of NHP 24 hours after tLNP, LC/MS/MS; format: in vivo, cynomolgus macaques
Procedure: Samples were taken from cynomolgus macaques that had been intravenously administered either BF1 or F5 tLNPs (two each) at a dosage of 3 mg mRNA/kg in the preceding example. The tLNPs were conjugated to anti-C05 mentioned in Example 2 as the targeting moiety. 24 hours after administration the animals were sacrificed and plasma, liver, and spleen tissue collected from two animals in each group and assessed by mass spectrometry for presence of these ionizable cationic lipids in order to assess biodegradability and biodistribution of these ionizable cationic lipids.
Briefly, plasma was stabilized for mass spectrometry by addition of 10 μL of formic acid per mL of K2EDTA plasma. Spleen and liver tissue were homogenized in 19 parts of homogenization buffer (50:40:10 0.1% formic acid in 1:1 methanol:acetone/10 mM ammonium formate with 0.2% formic acid/dimethylformamide (DMF)) to 1 part tissue (v/w) using a Geno/Grinder® (SPEX® SamplePrep) set to two minutes at 1500 rpms.
Calibration curves and quality control samples were prepared by spiking control matrix (plasma or homogenate) with CICL1 or ALC-0315 in DMF. The extraction was performed on wet ice by adding 300 μL of crashing solvent (0.1% formic acid in 1:1 methanol:acetonitrile) to 25 μL of sample to which 50 μL of internal standard was added (1:1 isopropyl alcohol:water). The extracts were mixed for four minutes at 1500 rpms and then centrifuged at 3000×g for ten minutes. 200 μL of supernatant was transferred to a clean 96 well plate for LC/MS/MS analysis.
Chromatography was performed on a Waters XBridge BEH C8 column (130 Å, 2.5 μm, 2.1×30 mm) using the following gradient. Mobile phase A (10 mM ammonium format in water with 0.2% formic acid) was held at 20% for 0.3 minutes before being reduced to 5% over […]. This condition was held for one minute before being returned to 80% B (0.1% formic acid in 1:1 methanol:acetonitrile) in 0.1 minutes. The column was then held at 80% B for 1.4 minutes. LC flow rate was held at 0.5 mL/min and the autosampler held at 2-8° C. The mass spectrum was obtained with a triple quadrupole apparatus using atmospheric pressure ionization (Sciex).
Quantitation was performed using a 1/X2 quadratic regression using the peak area for transition 1013.6→968A (CICL1) or 766.6-748.4 (ALC-0315) over peak area of transition 1040.6→995.4 of the internal standard.

[2] = Time course of ionizable cationic lipid in plasma, spleen and liver of mice, LC-MS; format: in vivo; settings: for plasma levels of lipid at 7 days: 2 mg/kg tLNP (F9 or BF1) targeted to mouse CD8, FIG. 13C
Procedure: To obtain more detailed data a similar experiment was conducted in mice where it was possible to obtain a time course of disappearance of the ionizable cationic lipid and the encapsulated mRNA as well. Mice were intravenously administered 2 mg/kg tLNP of composition BF1 (comprising ALC-0315) or F9 (comprising CICL1) targeted to mouse CD8 and encapsulating an anti-human CD19 CAR, and monitored through 7 days. At each timepoint, 3 mice were sacrificed, and liver, spleen, and plasma were processed for LC-MS-based detection of lipid concentration and digital PCR detection of the mRNA. In plasma, mRNA level was normalized to a known amount of mRNA spiked in a control. In spleen and liver mRNA level was normalized to mRNA for the housekeeping gene GAPDH.

[3] = Tolerability in non-human primates: liver enzymes ALT and AST; format: in vivo; settings: ionizable cationic lipid in F9 tLNP, second NHP study
Procedure: A second study was conducted with F9 tLNP to evaluate the tolerability and engineering efficiency of (1) a single administration of a CD5-targeted tLNP (humanized 5D7 targeting antibody) with an mRNA payload encoding an anti-CD19 CAR, (2) a single administration of a CD8-targeted tLNP (chimeric RPA-T8 targeting antibody) with an mRNA payload also encoding the anti-CD19 CAR, and (3) repeat administration (3 doses) of the CD5-targeted tLNP. The CD5-targeted tLNP was administered as a single dose at 3.0 mg/kg (Group 2, n=2) or as a repeat dose of 1.0 mg/kg at 72-hour intervals (Q72h) for three doses (Group 5, n=2). […] As a control, PBS was administered (Group 1, n=1). All tLNP tested in the second study utilized composition F9. […] Clinical observations, clinical pathology, and toxicology biomarkers were evaluated to assess safety and tolerability. Pharmacological assessment was carried out by flow cytometry detection of anti-CD19 CAR in immune cell subsets in peripheral blood and tissues (spleen, bone marrow, lymph node, and liver).
A third study in NHP with F9 tLNP targeted to C08 and encapsulating an mRNA encoding an anti-CD19 CAR was also conducted and the single dose liver enzyme results of all three studies (doses ranging from 3.5 to 3.0 mg mRNA/kg) compiled into single plots of AST and ALT levels for a more global assessment (FIG. 12K).

[4] = target: signal regulatory protein α (SIRPα) (Homo sapiens, UniProt P78324); settings: cited from earlier work
Sequence of signal regulatory protein α (SIRPα) (P78324 31-504): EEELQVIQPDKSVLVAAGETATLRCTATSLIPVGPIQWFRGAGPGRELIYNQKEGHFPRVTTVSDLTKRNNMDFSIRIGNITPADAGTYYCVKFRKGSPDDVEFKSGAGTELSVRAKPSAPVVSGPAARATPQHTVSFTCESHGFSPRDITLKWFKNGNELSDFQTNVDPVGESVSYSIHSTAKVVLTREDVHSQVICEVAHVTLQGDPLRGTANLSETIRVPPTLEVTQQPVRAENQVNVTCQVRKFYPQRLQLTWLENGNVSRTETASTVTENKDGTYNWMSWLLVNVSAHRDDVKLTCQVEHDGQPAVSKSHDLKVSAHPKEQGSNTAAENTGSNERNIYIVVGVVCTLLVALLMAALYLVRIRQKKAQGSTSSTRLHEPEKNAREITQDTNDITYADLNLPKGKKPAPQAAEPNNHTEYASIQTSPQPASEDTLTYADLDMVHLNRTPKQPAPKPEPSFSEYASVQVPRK

CCCCCCCCC(CCCCCC)C(=O)OCCCCCCN(CCCCO)CCCCCCOC(=O)C(CCCCCC)CCCCCCCC (stereo not drawn) [ALC-0315, [(4-Hydroxybutyl)azanediyl)di(hexane-6,1-diyl) bis(2-hexyldecanoate), reference compound]
concentration remaining in blood, fold greater (than CICL1) ([1]; 24 hours after 3 mg mRNA/kg tLNP, FIG. 13B): about 6 fold
plasma levels of lipid at 7 days [2]: still detected
lipid levels in spleen and liver throughout the 7 days ([2]; FIGS. 13D-E): remained almost unchanged

CCCCCCCCC(=O)OCC(COC(=O)CCCCCCCC)CC(=O)OCCN(CCOC(=O)CC(COC(=O)CCCCCCCC)COC(=O)CCCCCCCC)C(=O)OCCN(C)C [CICL1]
tolerability [3]: well tolerated
concentrations in blood, liver, and spleen relative to each other ([1]; 24 hours): ≤ 2 fold
spleen concentration, fold less than for ALC-0315 ([1]; 24 hours): ~35 fold
amount of lipid present in blood, liver, and spleen ([1]; 24 hours after 3 mg mRNA/kg tLNP): only very small amounts
biodegradability compared with ALC-0315 ([1]; clearance data): much more biodegradable
plasma levels of lipid at 7 days [2]: returned to baseline
time after administration by which levels were falling in the spleen ([2]; FIG. 13D): ≤ 1 h
time after administration by which levels were falling in the liver ([2]; FIG. 13E): ≤ 2 h

NYTCEVTELSREGKTVIELK (SEQ ID NO: 3) [CD47 peptide]
binding affinity to SIRPα, fold stronger than full-length CD47 protein [4]: 10 fold

— patent US20260263618A1, “LIPID NANOPARTICLE FORMULATIONS AND COMPOSITIONS” (CAPSTAN THERAPEUTICS, INC., priority 2023, published 2026)
